These results are taken from patent US20240059698A1 (Accutar Biotechnology Inc., priority 2022, published 2024).

Assay type in all cases: cell-based
One assay concerns HCC827 cells. The experiment in a line: Cell growth inhibition (CellTiter-Glo), HCC827. To be noted: Homo sapiens, 72 h, 3 days. The procedure: 2. Cell Growth Inhibition for HCC827, HCC827-SVD, HCC827-ASV, HCC827-YVMA, and A431.
HCC827(ATCC), HCC827-SVD, HCC827-ASV, and HCC827-YVMA cells were seeded in 96-well plates at 5000 cells/well in 90 μL of RPMI growth medium containing 10% FBS and 1% Penicillin Streptomycin. A431 (ATCC) cells were seeded in 96-well plates at 5000 cells/well in 90 μL of DMEM growth medium containing 10% FBS and 1% Penicillin Streptomycin. Cells were incubated at 37° C. overnight and then administered with 10 μL 10× test compounds prepared in the growth medium at various concentrations. After administration of the compounds, cells were incubated at 37° C. for 3 days. Before the CellTiter-Glo assay, the plates were equilibrated at room temperature for approximately 30 minutes. 100 ul of CellTiter-Glo reagent (Promega) was added to each well. The plates were then incubated at room temperature for 10 minutes and luminescence was recorded by the EnSight® multimode plate reader (PerkinElmer). Table 7 listed selected compounds in cellular growth assay.
(In general: Cellular ATP, detected with luciferase, serves as a proxy for viable cell number.)

In assay [1] the test system is HCC827-SVD cells (human EGFR exon 20 insertion mutant D770_N771insSVD). The assay can be described thus: Cell growth inhibition (CellTiter-Glo), HCC827-SVD. Particulars: 72 h, 3 days. The essentials: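 Growth read by CellTiter-Glo luminescence after 3-day compound exposure at 37 °C. Engineered clonal HCC827 line (native EGFR deleted by CRISPR, mutant EGFR re-expressed) plated at 5000 cells/well in 10% FBS RPMI the night before dosing.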

Assay [2] has as its system HCC827-YVMA cells (human ERBB2 exon20 insertion mutant A775_G776ins YVMA). The experiment in a line: Cell growth inhibition (CellTiter-Glo), HCC827-YVMA. To be noted: 72 h, HCC827-YVMA cells, 3 days, CellTiter-Glo, read-out: Cell growth inhibition, GI50 (nM) HCC827-YVMA. The gist of the method: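 Growth in RPMI with 10% FBS was measured by CellTiter-Glo luminescence after 3 days at 37 °C with test compounds across a concentration range. The single-clone HCC827 lines carry a lentiviral YVMA (ERBB2) or ASV (EGFR) exon 20 insertion, with endogenous EGFR removed via sgRNA/Cas9.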

Consider `C=CC(=O)N1CCC(c2c[nH]c3ncnc(Nc4ccc(OC5CCCN(S(=O)(=O)c6ccccc6)C5)cc4F)c23)CC1` (stereo in doubt) [Compound 124, (S)-1-(4-(4-((2-fluoro-4-((1-(phenylsulfonyl)piperidin-3-yl)oxy)phenyl)amino)-7H-pyrrolo[2,3-d]pyrimidin-5-yl)piperidin-1-yl)prop-2-en-1-one], for which the results for the GI50 (in the assay on HCC827 cells; in assay [1]; in assay [2]) were 200 to 1000 nM, 200 to 1000 nM and 50 to 200 nM, respectively.

On to `C=CC(=O)N1CCC(c2c[nH]c3ncnc(Nc4ccc(OCc5ccnn5CC)c(Cl)c4)c23)CC1` [Compound 81, 1-(4-(4-((3-chloro-4-((1-ethyl-1H-pyrazol-5-yl)methoxy)phenyl)amino)-7H-pyrrolo[2,3-d]pyrimidin-5-yl)piperidin-1-yl)prop-2-en-1-one], for which the GI50 in assay [1] and in assay [2] was 50 to 200 nM throughout.

For `C=CC(=O)N1CCC(c2c[nH]c3ncnc(Nc4ccc(Oc5ccnc(-c6cccc(F)c6)c5)cc4F)c23)CC1` [Compound 82, 1-(4-(4-((2-fluoro-4-((2-(3-fluorophenyl)pyridin-4-yl)oxy)phenyl)amino)-7H-pyrrolo[2,3-d]pyrimidin-5-yl)piperidin-1-yl)prop-2-en-1-one], the GI50 in assay [1] is above 1000 nM; in assay [2] it was 200 to 1000 nM.

Regarding `C=CC(=O)N1CCC(c2c[nH]c3ncnc(Nc4ccc(Oc5ccnc(Nc6ccncn6)c5)cc4F)c23)CC1` [Compound 83, 1-(4-(4-((2-fluoro-4-((2-(pyrimidin-4-ylamino)pyridin-4-yl)oxy)phenyl)amino)-7H-pyrrolo[2,3-d]pyrimidin-5-yl)piperidin-1-yl)prop-2-en-1-one], the GI50 in assay [1] is 200 to 1000 nM; in assay [2] it was 50 to 200 nM.

Turning to `C=CC(=O)N1CCC(c2c[nH]c3ncnc(Nc4ccc(OCc5ccnc(NC6CCC6)c5)cc4F)c23)CC1` [Compound 84, 1-(4-(4-((4-((2-(cycloButylamino)pyridin-4-yl)methoxy)-2-fluorophenyl)amino)-7H-pyrrolo[2,3-d]pyrimidin-5-yl)piperidin-1-yl)prop-2-en-1-one], the GI50 is below 50 nM in assay [1] and 50 to 200 nM in assay [2].

`C=CC(=O)N1CCC(c2c[nH]c3ncnc(Nc4ccc(OCc5cn(C(C)C)cn5)c(Cl)c4)c23)CC1` [Compound 85, 1-(4-(4-((3-chloro-4-((1-isopropyl-1H-imidazol-4-yl)methoxy)phenyl)amino)-7H-pyrrolo[2,3-d]pyrimidin-5-yl)piperidin-1-yl)prop-2-en-1-one]: the GI50 in assay [1] and in assay [2] was 50 to 200 nM throughout.

On to `C=CC(=O)N1CCC(c2c[nH]c3ncnc(Nc4ccc(OCc5cncs5)c(Cl)c4)c23)CC1` [Compound 86, 1-(4-(4-((3-chloro-4-(thiazol-5-ylmethoxy)phenyl)amino)-7H-pyrrolo[2,3-d]pyrimidin-5-yl)piperidin-1-yl)prop-2-en-1-one], for which the 50% growth inhibitory concentration (GI50) in assay [1] and in assay [2] was below 50 nM in each case.

For `C=CC(=O)N1CCC(c2c[nH]c3ncnc(Nc4ccc(OCc5cnc(C(F)(F)F)s5)c(Cl)c4)c23)CC1` [Compound 87, 1-(4-(4-((3-chloro-4-((2-(trifluoromethyl)thiazol-5-yl)methoxy)phenyl)amino)-7H-pyrrolo[2,3-d]pyrimidin-5-yl)piperidin-1-yl)prop-2-en-1-one], the 50% growth inhibitory concentration (GI50) in assay [1] and in assay [2] was 50 to 200 nM each time.

For `C=CC(=O)N1CCC(c2c[nH]c3ncnc(Nc4ccc(OCc5cccc(C6CC6)n5)c(Cl)c4)c23)CC1` [Compound 88, 1-(4-(4-((3-chloro-4-((6-cyclopropylpyridin-2-yl)methoxy)phenyl)amino)-7H-pyrrolo[2,3-d]pyrimidin-5-yl)piperidin-1-yl)prop-2-en-1-one], the concentration for 50% growth inhibition (GI50) in assay [1] and in assay [2] was 50 to 200 nM each time.

Regarding `C=CC(=O)N1CCC(c2c[nH]c3ncnc(Nc4ccc(OCc5cc(C6CC6)ccn5)c(Cl)c4)c23)CC1` [Compound 89, 1-(4-(4-((3-chloro-4-((4-cyclopropylpyridin-2-yl)methoxy)phenyl)amino)-7H-pyrrolo[2,3-d]pyrimidin-5-yl)piperidin-1-yl)prop-2-en-1-one], the GI50 in assay [1] and in assay [2] was 50 to 200 nM each time.

On to `C=CC(=O)N1CCC(c2c[nH]c3ncnc(Nc4ccc(Oc5ccnc(NC(=O)C(C)(C)C)c5)cc4F)c23)CC1` [Compound 91, N-(4-(4-((5-(1-acryloylpiperidin-4-yl)-7H-pyrrolo[2,3-d]pyrimidin-4-yl)amino)-3-fluorophenoxy)pyridin-2-yl)pivalamide], for which the 50% growth inhibitory concentration (GI50) was 200 to 1000 nM in assay [1] and below 50 nM in assay [2].

On to `C=CC(=O)N1CCC(c2c[nH]c3ncnc(Nc4ccc(OCc5ccnc(-n6ccc(OC)n6)c5)cc4F)c23)CC1` [Compound 92, 1-(4-(4-((2-fluoro-4-((2-(3-methoxy-1H-pyrazol-1-yl)pyridin-4-yl)methoxy)phenyl)amino)-7H-pyrrolo[2,3-d]pyrimidin-5-yl)piperidin-1-yl)prop-2-en-1-one], for which the concentration for 50% growth inhibition (GI50) (with HCC827 cells; in assay [1]; in assay [2]) was 50 to 200 nM throughout.

Take `C=CC(=O)N1CCC(c2c[nH]c3ncnc(Nc4ccc(OCc5ccnc(Nc6ccccn6)c5)cc4F)c23)CC1` [Compound 93, 1-(4-(4-((2-fluoro-4-((2-(pyridin-2-ylamino)pyridin-4-yl)methoxy)phenyl)amino)-7H-pyrrolo[2,3-d]pyrimidin-5-yl)piperidin-1-yl)prop-2-en-1-one]: the GI50 (with HCC827 cells; in assay [1]; in assay [2]) was 50 to 200 nM each time.

For `C=CC(=O)N1CCC(c2c[nH]c3ncnc(Nc4ccc(OCc5nccn5C)c(Cl)c4)c23)CC1` [Compound 94, 1-(4-(4-((3-chloro-4-((1-methyl-1H-imidazol-2-yl)methoxy)phenyl)amino)-7H-pyrrolo[2,3-d]pyrimidin-5-yl)piperidin-1-yl)prop-2-en-1-one], the 50% growth inhibitory concentration (GI50) (in the assay with HCC827 cells; in assay [1]; in assay [2]) was 50 to 200 nM each time.

Take `C=CC(=O)N1CCC(c2c[nH]c3ncnc(Nc4ccc(Oc5ccnc(N6CC(N(C)C)C6)c5)cc4F)c23)CC1` [Compound 129, 1-(4-(4-((4-((2-(3-(dimethylamino)azetidin-1-yl)pyridin-4-yl)oxy)-2-fluorophenyl)amino)-7H-pyrrolo[2,3-d]pyrimidin-5-yl)piperidin-1-yl)prop-2-en-1-one]: the GI50 in assay [1] and in assay [2] was 200 to 1000 nM throughout.

As for `C=CC(=O)N1CCC(c2c[nH]c3ncnc(Nc4ccc(Oc5ccnc(N6CC(O)(C(C)C)C6)c5)cc4F)c23)CC1` [Compound 130, 1-[4-[4-[2-fluoro-4-[[2-(3-hydroxy-3-isopropyl-azetidin-1-yl)-4-pyridyl]oxy]anilino]-7H-pyrrolo[2,3-d]pyrimidin-5-yl]-1-piperidyl]prop-2-en-1-one], the concentration for 50% growth inhibition (GI50) in assay [1] and in assay [2] was 50 to 200 nM in each case.

In the case of `C=CC(=O)N1CCC(c2csc3ncnc(Nc4ccc(Oc5ccnc(NC(=O)C6CCCC6)c5)cc4F)c23)CC1` [Compound 161, N-(4-(4-((5-(1-acryloylpiperidin-4-yl)thieno[2,3-d]pyrimidin-4-yl)amino)-3-fluorophenoxy)pyridin-2-yl)cyclopentanecarboxamide], the GI50 lay within 200 to 1000 nM in assay [1] and 50 to 200 nM in assay [2].

Turning to `C=CC(=O)N1CCC(c2csc3ncnc(Nc4ccc(Oc5ccnc(NC(=O)C(C)(C)C)c5)cc4F)c23)CC1` [Compound 162, N-(4-(4-((5-(1-acryloylpiperidin-4-yl)thieno[2,3-d]pyrimidin-4-yl)amino)-3-fluorophenoxy)pyridin-2-yl)pivalamide], the figures for the GI50 in assay [1] and in assay [2] were above 1000 nM and 200 to 1000 nM, respectively.

In the case of `C=CC(=O)N1CCC(c2n[nH]c3ncnc(Nc4ccc(Oc5cccc(S(=O)(=O)NC6CC(F)(F)C6)c5)cc4F)c23)CC1` [Compound 185, 3-(4-((3-(1-acryloylpiperidin-4-yl)-1H-pyrazolo[3,4-d]pyrimidin-4-yl)amino)-3-fluorophenoxy)-N-(3,3-difluorocycloButyl)benzenesulfonamide], the 50% growth inhibitory concentration (GI50) in assay [1] and in assay [2] was 50 to 200 nM each time.

In the case of `C=CC(=O)N1CCC(c2n[nH]c3ncnc(Nc4ccc(Oc5ccnc(NC(=O)C(C)(C)C)c5)cc4F)c23)CC1` [Compound 192, N-(4-(4-((3-(1-acryloylpiperidin-4-yl)-1H-pyrazolo[3,4-d]pyrimidin-4-yl)amino)-3-fluorophenoxy)pyridin-2-yl)pivalamide], the concentration for 50% growth inhibition (GI50) in assay [1] and in assay [2] was 50 to 200 nM each time.

Take `C=CC(=O)N1CCC(c2n[nH]c3ncnc(Nc4ccc(Oc5ccnc(NC(=O)c6cnn(C)c6)c5)cc4F)c23)CC1` [Compound 196, N-(4-(4-((3-(1-acryloylpiperidin-4-yl)-1H-pyrazolo[3,4-d]pyrimidin-4-yl)amino)-3-fluorophenoxy)pyridin-2-yl)-1-methyl-1H-pyrazole-4-carboxamide]: the GI50 in assay [1] and in assay [2] was 200 to 1000 nM throughout.

Broadly, the GI50 is the concentration giving 50% growth inhibition.
